# Measurements taken from article PMC5880808, “A lever-like transduction pathway for long-distance chemical- and mechano-gating of the mechanosensitive Piezo1 channel” (Nature Communications, 2018).
# Assays:
# mPiezo1 [1] = target: T1, mPiezo1 (Mus musculus, UniProt E2JF22); assay: Cell-attached patch with pressure clamp (stretch-activated currents); assay type: cell-based; conditions: absence of externally applied pressure, compound in pipette, vs DMSO
# T1 construct: The full-length mPiezo1 has 2547 amino acids in each monomer; expressed in transfected cells; host or cells: HEK293T
# mPiezo1 [2] = target: T1, mPiezo1; assay: Fura-2 single-cell Ca2+ imaging of mPiezo1-mCherry-transfected HEK293T cells; assay type: cell-based; conditions: for Ca2+ response (Fura-2 ratio): mCherry-positive HEK293T cells transfected with mPiezo1-mCherry
# Description: Fura-2 single-cell Ca^2+ imaging was performed according to the previous protocol. In brief, mCherry-Piezo1 cDNA (1 μg)-transfected HEK293T cells were plated onto 12-mm round glass coverslips, which were coated with poly-D-lysine and placed in 24-well plates, and subject to Fura-2 single-cell Ca^2+ imaging about 36 h post transfection. Cells were washed with buffer containing 1× HBSS (1.3 mM Ca^2+) and 10 mM HEPES (pH 7.2), incubated with 2.5 μM Fura-2 and 0.05% Pluronic F-127 (Life Technologies) for 30 min, then washed again with the previously mentioned buffer. The coverslip was mounted into an inverted Nikon-Tie microscope equipped with a CoolSNAP charge-coupled devise (CCD) camera and Lambda XL light box (Sutter Instrument), and mCherry-positive and -negative cells were selected for measurement of the 340/380 ratio with a ×20 objective (numerical aperture 0.75) using the MetaFluor Fluorescence Ratio Imaging software (Molecular Device).
# mPiezo1 [3] = target: T1, mPiezo1; assay: Inside-out patch recording of single-channel activity, compound in pipette solution; assay type: cell-based; conditions: −80 mV
# Description: For inside-out patch-clamp recordings using an Axopatch 200B amplifier (Axon Instruments), the “extracellular” pipette solution consists of (in mM) the following: 130 NaCl, 5 KCl, 10 HEPES, 1 CaCl2, 1 MgCl2, and 10 TEA-Cl (pH 7.3 with NaOH), and the intracellular “bath” solution contains (in mM) the following: 140 KCl, 10 HEPES, 1 MgCl2, and 10 glucose (pH 7.3 with KOH). All experiments were done at room temperature. Currents were sampled at 20 kHz using Clampex 10.4 software (Axon Instruments) and filtered at 2 kHz. Additional offline filtering of 1 kHz was applied to the recordings for display. Single-channel activity in the presence or absence of Jedi or Yoda1 was continuously recorded for 5 min at −80 mV. The single-channel open probability (NPo) and unitary conductance of mPiezo1 were analyzed using the pClamp software built-in features. Current amplitudes of individual cells recorded at −80 mV were calculated from Gaussian fits to the current amplitude histograms.
# [4] = target: T2, L1342A/L1345A mutant proteins (Mus musculus, UniProt E2JF22, L1342A/L1345A); assay: SPR binding to purified L1342A/L1345A mutant protein
# T2 construct: The full-length mPiezo1 has 2547 amino acids in each monomer; GST (PreScission site) (cleaved yes); made in house; host or cells: HEK293T
# Description: Real-time binding and analysis by SPR were conducted on BIAcore T200 instrument (GE Healthcare) at 25 °C. Proteins were immobilized on a research-grade CM5 sensor chip by amine-coupling methods. During the pH scouting process, 10 mM sodium acetate at various pH including 4.0, 4.5, 5.0, and 5.5 and protein concentrations varying between 10 and 100 μg/ml were screened before immobilization. Except pH 4.5 for mPiezo1-(1–2190), pH 5.0 was used for all other proteins, including mPiezo1, CED, Δ15-16, and Δ19-20. All proteins were diluted to 50 μg/ml in buffer containing 10 mM sodium acetate at the abovementioned pH, 0.026% C12E10 detergent, and 150 mM NaCl, except that the soluble CED proteins, which were diluted in 150 mM NaCl without detergent. During the immobilization process, the CM5 sensor was activated with NHS first, allowing the amine-containing proteins to be coupled to the sensor through NHS. Each CM5 sensor had 4 flow cells, and the flow cells 1 and 3 were often left blank as a reference. Diluted Piezo1 wild-type or mutant proteins (50 μg/ml) in their respective buffers were immobilized on the flow cell 2 or flow cell 4 to the similar level as indicated by the “response bound” parameter.
# For data collection, compounds at various concentrations were diluted in a running buffer containing 1× PBS, 0.026% detergent C12E10, and 0.05% Surfactant P20 (GE Healthcare Bio-Sciences AB) and injected over the flow cells with at a 30 μl/min flow rate. The proteins and the compounds were allowed to associate for 180 s and then dissociate for 180 s. Data were analyzed with the BIAcore T200 evaluation software by fitting to a 1:1 affinity-binding model.
# mPiezo1 [5] = target: T1, mPiezo1; assay: FLIPR GCAMP6s Ca2+ response of transfected HEK293T cells; assay type: cell-based; conditions: for EC50: Boltzmann fit, vector signal subtracted
# Description: Pharmacological compounds are invaluable tools for probing the structure-function relationship of ion channels. To identify specific chemical activators of Piezo channels, we have used the fluorescent imaging plate reader (FLIPR) in a 96-well format to screen about 3000 compounds for those that can evoke Ca^2+ increase in human embryonic kidney 293T (HEK293T) cells co-transfected with either mPiezo1 or mPiezo2, and the genetically encoded Ca^2+ reporter GCAMP6s (high Ca^2+ sensitivity but slow kinetics)[43]. We initially selected compounds that evoked Ca^2+ response in either Piezo1- or Piezo2-transfected cells and subsequently ruled out those nonspecific hits that caused Ca^2+ response in Piezo1-, Piezo2-, and vector-transfected cells (Fig. 2a). Eventually, we identified Jedi1 and Jedi2 as Piezo1 chemical activators, but no specific Piezo2 activators.
# HEK293T cells were grown in Dulbecco’s modified Eagle medium containing 4.5 mg/ml glucose, 10% fetal bovine serum, and 1% penicillin/streptomycin. Cells were seeded in 50 μg/ml poly-D-lysine-coated 96-well plates (3 × 10^4 cells/well) and allowed to grow for about 18 h, and then co-transfected with a total of 250 ng cDNA containing Piezo1 or Piezo2 and GCaMP6s using Lipofectamine 2000 (Invitrogen, Life Technology). Two days after transfection the cells were washed with buffer containing 1× Hanks’ balanced salt solution (HBSS; 1.3 mM Ca^2+) and 10 mM HEPES (pH 7.2). The 96-well plates were then transferred to the FLIPR Tetra (Molecular Device) for monitoring the GCAMP6s fluorescence before and after addition of the compounds that were prepared in separate compound plates. For the initial screening, we screened about 3000 compounds derived from either the chemical library collected in Dr. Yu Rao’s lab, which is composed of different classes of heterocycles, including various drug scaffold or the Maybridge Ro3 Diversity Fragment Library purchased from Maybridge (Cambridge, UK), which consists of 2500 fragment compounds with a molecular weight below 350 and high rule of three compliance. Each compound was tested at a final concentration of 200 μM. Approximately 20 positive hits were selected for further testing in Piezo1-, Piezo2-, or vector-transfected cells. For subsequent characterizations, Jedi1 was purchased from the company of Alfa Aesar, while Jedi2 and Yoda1 were synthesized in the laboratories of Drs. Wei He and Liansuo Zu, respectively. See the Supplementary Experiment Procedures for the chemical synthesis. The dose response measurement by FLIPR was similar to previously described.
# T2 sequence (E2JF22 whole entry L1342A/L1345A): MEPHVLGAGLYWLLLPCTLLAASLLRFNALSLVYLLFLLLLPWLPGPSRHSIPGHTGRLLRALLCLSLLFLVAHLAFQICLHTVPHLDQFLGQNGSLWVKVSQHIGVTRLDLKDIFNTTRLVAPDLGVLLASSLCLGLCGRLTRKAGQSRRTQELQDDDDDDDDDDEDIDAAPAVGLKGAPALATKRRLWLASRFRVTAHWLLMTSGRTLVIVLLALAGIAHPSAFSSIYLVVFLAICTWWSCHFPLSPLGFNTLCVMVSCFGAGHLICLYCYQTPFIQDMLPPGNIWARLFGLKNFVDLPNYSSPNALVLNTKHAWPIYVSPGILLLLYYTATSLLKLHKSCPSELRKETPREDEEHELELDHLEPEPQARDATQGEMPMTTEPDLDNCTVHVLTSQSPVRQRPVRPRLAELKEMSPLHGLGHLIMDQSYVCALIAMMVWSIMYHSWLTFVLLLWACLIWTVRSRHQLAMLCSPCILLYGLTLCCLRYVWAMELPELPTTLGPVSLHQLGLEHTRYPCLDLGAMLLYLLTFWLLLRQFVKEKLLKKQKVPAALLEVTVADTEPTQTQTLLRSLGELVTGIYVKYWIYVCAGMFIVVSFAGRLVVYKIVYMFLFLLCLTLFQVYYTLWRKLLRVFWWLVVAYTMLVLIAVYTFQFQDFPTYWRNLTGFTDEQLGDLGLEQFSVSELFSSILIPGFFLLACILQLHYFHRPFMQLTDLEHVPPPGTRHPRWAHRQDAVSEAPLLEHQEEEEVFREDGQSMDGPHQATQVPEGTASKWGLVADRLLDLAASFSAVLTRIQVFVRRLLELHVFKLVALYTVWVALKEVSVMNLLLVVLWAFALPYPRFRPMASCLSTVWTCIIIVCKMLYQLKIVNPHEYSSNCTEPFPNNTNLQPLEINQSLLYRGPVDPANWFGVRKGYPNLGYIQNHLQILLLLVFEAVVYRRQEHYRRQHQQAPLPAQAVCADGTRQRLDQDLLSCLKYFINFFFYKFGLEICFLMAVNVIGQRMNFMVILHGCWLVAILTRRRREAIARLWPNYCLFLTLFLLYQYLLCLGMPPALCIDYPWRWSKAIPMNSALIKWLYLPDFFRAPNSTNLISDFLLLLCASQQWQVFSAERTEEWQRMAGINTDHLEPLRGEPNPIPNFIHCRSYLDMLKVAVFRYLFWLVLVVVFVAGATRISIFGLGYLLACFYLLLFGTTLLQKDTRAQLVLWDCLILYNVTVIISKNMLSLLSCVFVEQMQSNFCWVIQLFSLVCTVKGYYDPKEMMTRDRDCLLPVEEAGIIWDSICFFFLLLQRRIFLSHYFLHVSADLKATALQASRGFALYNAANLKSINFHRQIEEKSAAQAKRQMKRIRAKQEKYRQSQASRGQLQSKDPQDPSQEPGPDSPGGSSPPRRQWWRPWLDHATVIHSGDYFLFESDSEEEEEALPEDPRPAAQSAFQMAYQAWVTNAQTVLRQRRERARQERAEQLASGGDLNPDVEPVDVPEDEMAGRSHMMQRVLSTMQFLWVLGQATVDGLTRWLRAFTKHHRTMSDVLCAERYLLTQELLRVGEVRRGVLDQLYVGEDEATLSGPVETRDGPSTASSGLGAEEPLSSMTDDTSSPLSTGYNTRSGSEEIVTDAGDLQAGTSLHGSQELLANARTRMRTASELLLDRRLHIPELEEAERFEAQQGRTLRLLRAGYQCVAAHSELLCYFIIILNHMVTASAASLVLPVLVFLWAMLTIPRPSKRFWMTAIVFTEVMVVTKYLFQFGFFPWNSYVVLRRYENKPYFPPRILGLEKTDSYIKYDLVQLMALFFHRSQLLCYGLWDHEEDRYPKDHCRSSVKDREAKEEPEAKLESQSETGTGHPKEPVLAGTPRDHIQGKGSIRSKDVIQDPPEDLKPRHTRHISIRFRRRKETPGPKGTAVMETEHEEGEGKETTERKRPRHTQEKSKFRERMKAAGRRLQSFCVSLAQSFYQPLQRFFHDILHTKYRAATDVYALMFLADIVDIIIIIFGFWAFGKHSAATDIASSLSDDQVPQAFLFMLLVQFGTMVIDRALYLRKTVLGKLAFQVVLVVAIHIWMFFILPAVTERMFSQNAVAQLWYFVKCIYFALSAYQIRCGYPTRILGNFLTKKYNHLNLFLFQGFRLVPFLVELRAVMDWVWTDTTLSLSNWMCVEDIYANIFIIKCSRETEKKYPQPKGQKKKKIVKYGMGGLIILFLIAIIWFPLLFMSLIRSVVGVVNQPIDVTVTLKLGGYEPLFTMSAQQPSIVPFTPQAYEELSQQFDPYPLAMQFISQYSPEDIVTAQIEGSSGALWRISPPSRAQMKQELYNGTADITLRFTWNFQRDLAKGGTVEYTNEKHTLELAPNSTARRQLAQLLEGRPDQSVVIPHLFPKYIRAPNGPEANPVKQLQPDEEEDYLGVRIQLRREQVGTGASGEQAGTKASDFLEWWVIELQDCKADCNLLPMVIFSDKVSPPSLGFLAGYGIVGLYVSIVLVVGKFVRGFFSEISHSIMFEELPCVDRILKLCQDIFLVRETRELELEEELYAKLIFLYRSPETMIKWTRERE
# T1 sequence (E2JF22 whole entry): as the sequence (E2JF22 whole entry L1342A/L1345A) above, with A1342L, A1345L counted along it
structure (smiles),measurement,setting,value
Cc1oc(-c2ccccc2)cc1C(=O)O [Jedi1],fold change of NPo,mPiezo1 [1],4.7 ± 1.4 fold
same,Ca2+ response (Fura-2 ratio),mPiezo1 [2],caused an increase in Ca^2+
same,fold change of the open probability (NPo),mPiezo1 [3],9.6 ± 2.4 fold
same,binding to purified L1342A/L1345A mutant proteins (SPR),[4],retained the ability to bind
same,Hill coefficient,mPiezo1 [5],~ 1.5
same,EC50,mPiezo1 [5],~200 µM
Cc1oc(-c2cccs2)cc1C(=O)O [Jedi2],Ca2+ response (Fura-2 ratio),mPiezo1 [2],caused an increase in Ca^2+
same,fold change of the open probability (NPo),mPiezo1 [3],significant increase in the opening probability
same,binding to purified L1342A/L1345A mutant proteins (SPR),[4],retained the ability to bind
same,Hill coefficient,mPiezo1 [5],1.6
same,EC50,mPiezo1 [5],158 µM
"Clc1cccc(Cl)c1CSc1nnc(-c2cnccn2)s1 [Yoda1, reference compound]",fold change of NPo,mPiezo1 [1],3.1 ± 1.3 fold
same,time course of the induced Ca2+ response,mPiezo1 [2]; Fura-2 single-cell imaging,"slow activation, no decay, and poor reversibility"
same,Ca2+ response (Fura-2 ratio),mPiezo1 [2],also responded to Yoda1
same,fold change of the open probability (NPo),mPiezo1 [3],14.8 ± 0.6 fold
same,binding to purified L1342A/L1345A mutant proteins (SPR),[4],retained the ability to bind
